Source: PubChem BioAssay AID1259407 (Chemical Carcinogenesis Research Information System (CCRIS), 2018)
Active and inactive are the calls of the source. How the calls were made is not given here.

Test system: CCRIS mutagenicity, Ames/micronucleus/aberration tests
Assay: CCRIS mutagenicity studies
[1] = Test System: AMES SALMONELLA TYPHIMURIUM, Strain/Indicator: TA98, Metabolic Activation: NONE, Method: STANDARD PLATE
[2] = Test System: AMES SALMONELLA TYPHIMURIUM, Strain/Indicator: TA98, Metabolic Activation: RAT, LIVER, S-9, AROCLOR 1254, Method: STANDARD PLATE
[3] = Test System: AMES SALMONELLA TYPHIMURIUM, Strain/Indicator: TA98, Metabolic Activation: HAMSTER, LIVER, S-9, AROCLOR 1254, Method: PREINCUBATION
[4] = Test System: AMES SALMONELLA TYPHIMURIUM, Strain/Indicator: TA98, Metabolic Activation: NONE, Method: PREINCUBATION
[5] = Test System: AMES SALMONELLA TYPHIMURIUM, Strain/Indicator: TA98, Metabolic Activation: RAT, LIVER, S-9, AROCLOR 1254, Method: PREINCUBATION
[6] = Test System: AMES SALMONELLA TYPHIMURIUM, Strain/Indicator: TA100, Metabolic Activation: HAMSTER, LIVER, S-9, AROCLOR 1254, Method: PREINCUBATION
[7] = Test System: AMES SALMONELLA TYPHIMURIUM, Strain/Indicator: TA100, Metabolic Activation: NONE, Method: PREINCUBATION
[8] = Test System: AMES SALMONELLA TYPHIMURIUM, Strain/Indicator: TA100, Metabolic Activation: RAT, LIVER, S-9, AROCLOR 1254, Method: PREINCUBATION
[9] = Test System: AMES SALMONELLA TYPHIMURIUM, Strain/Indicator: TA1535, Metabolic Activation: HAMSTER, LIVER, S-9, AROCLOR 1254, Method: PREINCUBATION
[10] = Test System: AMES SALMONELLA TYPHIMURIUM, Strain/Indicator: TA1535, Metabolic Activation: NONE, Method: PREINCUBATION
[11] = Test System: AMES SALMONELLA TYPHIMURIUM, Strain/Indicator: TA1535, Metabolic Activation: RAT, LIVER, S-9, AROCLOR 1254, Method: PREINCUBATION
[12] = Test System: AMES SALMONELLA TYPHIMURIUM, Strain/Indicator: TA1537, Metabolic Activation: HAMSTER, LIVER, S-9, AROCLOR 1254, Method: PREINCUBATION
[13] = Test System: AMES SALMONELLA TYPHIMURIUM, Strain/Indicator: TA1537, Metabolic Activation: NONE, Method: PREINCUBATION
[14] = Test System: AMES SALMONELLA TYPHIMURIUM, Strain/Indicator: TA1537, Metabolic Activation: RAT, LIVER, S-9, AROCLOR 1254, Method: PREINCUBATION

SMILES: Cc1cc(N)c([N+](=O)[O-])c(C)c1N
- mutagenic call [1]: inactive; negative
- mutagenic call [2]: inactive; negative
- mutagenic call (Test System: AMES SALMONELLA TYPHIMURIUM, Strain/Indicator: TA100, Metabolic Activation: NONE, Method: STANDARD PLATE): inactive; negative
- mutagenic call (Test System: AMES SALMONELLA TYPHIMURIUM, Strain/Indicator: TA100, Metabolic Activation: RAT, LIVER, S-9, AROCLOR 1254, Method: STANDARD PLATE): inactive; negative
- mutagenic call (Test System: AMES SALMONELLA TYPHIMURIUM, Strain/Indicator: TA1535, Metabolic Activation: NONE, Method: STANDARD PLATE): inactive; negative
- mutagenic call (Test System: AMES SALMONELLA TYPHIMURIUM, Strain/Indicator: TA1535, Metabolic Activation: RAT, LIVER, S-9, AROCLOR 1254, Method: STANDARD PLATE): inactive; negative
- mutagenic call (Test System: AMES SALMONELLA TYPHIMURIUM, Strain/Indicator: TA1537, Metabolic Activation: NONE, Method: STANDARD PLATE): inactive; negative
- mutagenic call (Test System: AMES SALMONELLA TYPHIMURIUM, Strain/Indicator: TA1537, Metabolic Activation: RAT, LIVER, S-9, AROCLOR 1254, Method: STANDARD PLATE): inactive; negative
- mutagenic call (Test System: AMES SALMONELLA TYPHIMURIUM, Strain/Indicator: TA1538, Metabolic Activation: NONE, Method: STANDARD PLATE): inactive; negative
- mutagenic call (Test System: AMES SALMONELLA TYPHIMURIUM, Strain/Indicator: TA1538, Metabolic Activation: RAT, LIVER, S-9, AROCLOR 1254, Method: STANDARD PLATE): inactive; negative

SMILES: Brc1cccc(-c2ccccc2)c1
- mutagenic call [3]: inactive; negative
- mutagenic call [4]: inactive; negative
- mutagenic call [5]: inactive; negative
- mutagenic call [6]: inactive; negative
- mutagenic call [7]: inactive; negative
- mutagenic call [8]: inactive; negative
- mutagenic call [9]: inactive; negative
- mutagenic call [10]: inactive; negative
- mutagenic call [11]: inactive; negative
- mutagenic call [12]: inactive; negative
- mutagenic call [13]: inactive; negative
- mutagenic call [14]: inactive; negative

SMILES: Clc1cc(Cl)c(Cl)c(Cl)c1Cl
- mutagenic call [3]: inactive; negative
- mutagenic call [4]: inactive; negative
- mutagenic call [5]: inactive; negative
- mutagenic call [6]: inactive; negative
- mutagenic call [7]: inactive; negative
- mutagenic call [8]: inactive; negative
- mutagenic call [9]: inactive; negative
- mutagenic call [10]: inactive; negative
- mutagenic call [11]: inactive; negative
- mutagenic call [12]: inactive; negative
- mutagenic call [13]: inactive; negative
- mutagenic call [14]: inactive; negative

SMILES: Cc1c2ccccc2cc2ccc3c(c12)C=CC(=O)C3=O
- mutagenic call (Test System: AMES SALMONELLA TYPHIMURIUM, Strain/Indicator: TA97A, Metabolic Activation: NONE, Method: PREINCUBATION): inactive; negative
- mutagenic call [4]: active; positive
- mutagenic call [7]: inactive; negative
- mutagenic call (Test System: AMES SALMONELLA TYPHIMURIUM, Strain/Indicator: TA102, Metabolic Activation: NONE, Method: PREINCUBATION): inactive; negative
- mutagenic call (Test System: AMES SALMONELLA TYPHIMURIUM, Strain/Indicator: TA104, Metabolic Activation: NONE, Method: PREINCUBATION): inactive; negative

SMILES: O=c1c(O[C@@H]2O[C@H](CO)[C@@H](O)[C@H](O)[C@H]2O)c(-c2ccc(O)c(O)c2)oc2cc(O)cc(O)c12
- mutagenic call (Test System: AMes Salmonella typhimurium, Strain/Indicator: TA98, Metabolic Activation: None, Method: Standard plate): active; positive
- mutagenic call (Test System: Ames Salmonella typhimurium, Strain/Indicator: 98, Metabolic Activation: Rat, Liver, S-9, Aroclor 1254, Method: Standard plate): active; positive
- mutagenic call (Test System: Ames Salmonella typhimurium, Strain/Indicator: TA100, Metabolic Activation: None, Method: Standard plate): inactive; negative
- mutagenic call (Test System: Ames Salmonella typhimurium, Strain/Indicator: TA100, Metabolic Activation: Rat, Liver, S-9, Aroclor 1254, Method: Standard plate): active; positive

SMILES: [N-]=[N+]=N[C@@H](c1ccccc1)[C@H](O)CO
- mutagenic call (Test System: AMES SALMONELLA TYPHIMURIUM, Strain/Indicator: TA100, Metabolic Activation: RAT, LIVER, S-9, PCB, Method: PREINCUBATION): active; positive

SMILES: C=CC(=O)OCCOCCOCCOCCOC(=O)C=C
- mutagenic call (Test System: AMES SALMONELLA TYPHIMURIUM, Strain/Indicator: TA98, Metabolic Activation: HAMSTER, LIVER, S-9, AROCLOR 1254 (10%), Method: PREINCUBATION): inactive; negative
- mutagenic call [4]: inactive; negative
- mutagenic call (Test System: AMES SALMONELLA TYPHIMURIUM, Strain/Indicator: TA98, Metabolic Activation: RAT, LIVER, S-9, AROCLOR 1254 (10%), Method: PREINCUBATION): inactive; negative
- mutagenic call (Test System: AMES SALMONELLA TYPHIMURIUM, Strain/Indicator: TA100, Metabolic Activation: HAMSTER, LIVER, S-9, AROCLOR 1254 (10%), Method: PREINCUBATION): inactive; negative
- mutagenic call [7]: inactive; negative
- mutagenic call (Test System: AMES SALMONELLA TYPHIMURIUM, Strain/Indicator: TA100, Metabolic Activation: RAT, LIVER, S-9, AROCLOR 1254 (10%), Method: PREINCUBATION): inactive; negative
- mutagenic call (Test System: AMES SALMONELLA TYPHIMURIUM, Strain/Indicator: TA1535, Metabolic Activation: HAMSTER, LIVER, S-9, AROCLOR 1254 (10%), Method: PREINCUBATION): inactive; negative
- mutagenic call [10]: inactive; negative
- mutagenic call (Test System: AMES SALMONELLA TYPHIMURIUM, Strain/Indicator: TA1535, Metabolic Activation: RAT, LIVER, S-9, AROCLOR 1254 (10%), Method: PREINCUBATION): inactive; negative
- mutagenic call (Test System: AMES SALMONELLA TYPHIMURIUM, Strain/Indicator: TA1537, Metabolic Activation: HAMSTER, LIVER, S-9, AROCLOR 1254 (10%), Method: PREINCUBATION): inactive; negative
- mutagenic call [13]: inactive; negative
- mutagenic call (Test System: AMES SALMONELLA TYPHIMURIUM, Strain/Indicator: TA1537, Metabolic Activation: RAT, LIVER, S-9, AROCLOR 1254 (10%), Method: PREINCUBATION): inactive; negative
- mutagenic call (Test System: CHINESE HAMSTER OVARY, Strain/Indicator: CHO-K1-BH4 (HGPRT)/6-THIOGUANINE, Metabolic Activation: NONE, Method: SUSPENSION/PLATE): active; positive
- mutagenic call (Test System: CHINESE HAMSTER OVARY, Strain/Indicator: CHO-K1-BH4 (HGPRT), Metabolic Activation: NONE, Method: MONOLAYER): active; positive
- mutagenic call (Test System: CHINESE HAMSTER OVARY, Strain/Indicator: CHO-K1-BH4 (HGPRT), Metabolic Activation: NONE, Method: SUSPENSION/PLATE): active; positive
- mutagenic call (Test System: MOUSE LYMPHOMA, Strain/Indicator: L5178Y (TK+/TK-), Metabolic Activation: NONE, Method: SUSPENSION/PLATE): active; positive

SMILES: CC(=O)Nc1ccc2c3c(cccc13)-c1ccc(O)cc1-2
- mutagenic call [1]: active; positive
- mutagenic call [2]: active; positive
